Source: ChEMBL document CHEMBL5241094 (J Med Chem, 2021)
Converted amounts (≈) assume the structure as drawn.

Tests used:
[1] = in vivo; conditions: C57BL/6, mouse, iv, 0.2 mg/kg
[2] = in vivo; conditions: C57BL/6, mouse, iv, 0.2 mg/kg; remark: listed apart in the source
[3] = physchem; conditions: PBS buffer, pH 7.4
[4] = Oral bioavailability in C57/BL6 mouse at 30 mg/kg administered as homogeneous suspension in 0.5% methocel/0.25% tween20 in 50 mM acetate buffer (pH 5.5) and measured after 2 hrs by HPLC-MS/MS analysis; type: ADME, organism-based; conditions: in vivo

| SMILES | Vd at 2 h [1] [L/kg] | clearance at 2 h [2] [L/h/kg] | solubility at 24 h [3] [mg/mL] | bioavailability [4] [%] |
| --- | --- | --- | --- | --- |
| CCOc1ccc(S(=O)(=O)Nc2ccccc2C#Cc2ccc(C(=O)O)nc2)c2ncccc12 | 0.4 | 0.6 |  |  |
| COc1ccc(S(=O)(=O)Nc2ccccc2C#Cc2ccc(C(=O)O)nc2)c2ncccc12 | 0.6 | 0.4 | 0.445 (≈ 968 µM) |  |
| Cc1cc(C#Cc2ccccc2NS(=O)(=O)c2c(C)ccc3cccnc23)cnc1C(=O)O | 1.9 | 1.9 | 0.384 (≈ 839 µM) | 45 |
